# Measurements reported in paper PMC8243326, “Data-Driven Ensemble Docking to Map Molecular Interactions of Steroid Analogs with Hepatic Organic Anion Transporting Polypeptides” (Journal of Chemical Information and Modeling, 2021).
# Like-named read-outs stand apart in the source and are kept apart here.
# Tests used:
# OATP1B1 [1] = molecular target: T1, OATP1B1 (Homo sapiens, UniProt Q9Y6L6); experiment: Pyranine uptake inhibition in A431 cells overexpressing OATP1B1; details: for activity on OATP1B1 and OATP1B3 (in words): statement covers both OATP1B1 and OATP1B3
# T1 sequence (Q9Y6L6 1-691): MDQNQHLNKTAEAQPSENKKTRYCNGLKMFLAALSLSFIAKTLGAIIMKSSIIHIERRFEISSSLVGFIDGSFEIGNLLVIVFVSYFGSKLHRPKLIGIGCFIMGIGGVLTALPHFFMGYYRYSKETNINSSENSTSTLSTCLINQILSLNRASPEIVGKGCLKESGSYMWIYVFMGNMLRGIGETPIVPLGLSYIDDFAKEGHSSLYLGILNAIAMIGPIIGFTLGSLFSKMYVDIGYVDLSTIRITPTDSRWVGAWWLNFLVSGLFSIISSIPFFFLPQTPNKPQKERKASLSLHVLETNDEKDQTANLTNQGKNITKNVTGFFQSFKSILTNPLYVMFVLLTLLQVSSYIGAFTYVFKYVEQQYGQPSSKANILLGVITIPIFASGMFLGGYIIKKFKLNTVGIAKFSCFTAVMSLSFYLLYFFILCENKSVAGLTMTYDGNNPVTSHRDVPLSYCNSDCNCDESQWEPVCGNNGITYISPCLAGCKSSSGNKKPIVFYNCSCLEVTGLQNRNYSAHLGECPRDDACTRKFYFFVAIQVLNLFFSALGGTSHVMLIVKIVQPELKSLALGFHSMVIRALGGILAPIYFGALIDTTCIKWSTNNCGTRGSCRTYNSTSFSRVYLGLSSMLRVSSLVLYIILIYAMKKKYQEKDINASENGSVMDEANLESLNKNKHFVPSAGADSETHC
# Description: IC50 values were calculated based on transport inhibition measurements (see below) by Hill1 fit, using the Origin Pro8.6 software (OriginLab Corporation, Northampton, MA, US).
# (§1) 20 mM stocks in DMSO were stored for further usage at −20 °C. A431 cells overexpressing OATPs, OATP1B1, OATP1B3, or OATP2B1 or mock transfected controls were generated previously.[60] A431 cells were maintained in DMEM medium (Thermo Fischer Scientific, Waltham, MA, US) supplemented with 10% fetal bovine serum, 2 mM L-glutamine, 100 units/mL penicillin, and 100 μg/mL streptomycin at 37 °C with 5% CO2. […] The uptake of pyranine was measured on microplates based on the method developed by us previously.[60],[61]
# Briefly, 1 day prior to the uptake measurement cells (8 × 10^4 cells/well in 200 μL DMEM) were seeded on 96-well plates. […] OATP-dependent transport was calculated by extracting fluorescence measured in mock transfected cells. Transport activity was calculated based on the fluorescence signal in the absence (100%) of the tested compounds. Experiments were repeated at least three times on cells deriving from different passages.
# (§2) IC50 values were calculated by Hill1 fit, using the (OriginLab Corporation, Northampton, MA, US).
# OATP1B3 [2] = molecular target: T2, OATP1B3 (Homo sapiens, UniProt Q9NPD5); experiment: Pyranine uptake inhibition in A431 cells overexpressing OATP1B3
# T2 sequence (Q9NPD5 1-702): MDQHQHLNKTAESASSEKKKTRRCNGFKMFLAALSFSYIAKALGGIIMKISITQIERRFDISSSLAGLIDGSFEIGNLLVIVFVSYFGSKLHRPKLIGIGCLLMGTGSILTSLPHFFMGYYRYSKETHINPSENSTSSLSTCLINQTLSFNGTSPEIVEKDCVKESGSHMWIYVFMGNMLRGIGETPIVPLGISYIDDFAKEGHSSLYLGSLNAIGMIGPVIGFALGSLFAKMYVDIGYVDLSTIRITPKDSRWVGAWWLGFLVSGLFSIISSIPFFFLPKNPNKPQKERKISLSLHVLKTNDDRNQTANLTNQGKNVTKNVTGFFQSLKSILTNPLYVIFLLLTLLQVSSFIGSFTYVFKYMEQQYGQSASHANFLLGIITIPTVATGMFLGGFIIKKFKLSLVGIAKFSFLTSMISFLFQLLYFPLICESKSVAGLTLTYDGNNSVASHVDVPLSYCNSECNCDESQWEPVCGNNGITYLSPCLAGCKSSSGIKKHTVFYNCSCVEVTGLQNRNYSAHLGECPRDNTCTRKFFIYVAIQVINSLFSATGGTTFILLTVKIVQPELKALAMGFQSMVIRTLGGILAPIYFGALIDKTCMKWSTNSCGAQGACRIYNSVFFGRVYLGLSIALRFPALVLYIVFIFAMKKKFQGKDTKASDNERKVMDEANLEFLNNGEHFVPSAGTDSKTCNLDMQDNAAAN
# Description: (§3) Compounds with measured bioactivities (Km, IC50, Ki, and EC50 bioactivity end points or percentage inhibition values) on OATP1B1 (n = 440 compounds), OATP1B3 (n = 936 compounds), or OATP2B1 (n = 173 compounds) were collected from the open domain by utilizing a KNIME workflow, which collects data from five independent data sources as described in Tuerkova et al.[15] […] IC50 values were calculated based on transport inhibition measurements (see below) by Hill1 fit, using the Origin Pro8.6 software (OriginLab Corporation, Northampton, MA, US).
# as §1
# (§4) Briefly, 1 day prior to the uptake measurement cells (8 × 10^4 cells/well in 200 μL DMEM) were seeded on 96-well plates. On the following day, the medium was removed, and the cells were washed three times with 200 μL of phosphate-buffered saline (PBS, pH 7.4) and preincubated with 50 μL of uptake buffer (125 mM NaCl, 4.8 mM KCl, 1.2 mM CaCl2, 1.2 mM KH2PO4, 12 mM MgSO4, 25 mM MES (2-(N-morpholino)ethanesulfonic acid, and 5.6 mM glucose, pH 5.5) with or without increasing concentrations of the tested compounds. The reaction was started by the addition of 50 μL of uptake buffer containing pyranine in a final concentration of 10 μM (OATP1B1) or 20 μM (OATP1B3 and OATP2B1). Cells were incubated with the dye at 37 °C for 15 min (OATP1B1 and OATP2B1) or 30 min (OATP1B3), after which the supernatant was removed, and the cells were washed three times with 200 μL of ice-cold PBS. Fluorescence (in 200 μL of PBS/well) was determined in an Enspire plate reader (PerkinElmer, Waltham, MA, Ex/Em = 403/517 nm). OATP-dependent transport was calculated by extracting fluorescence measured in mock transfected cells. Transport activity was calculated based on the fluorescence signal in the absence (100%) of the tested compounds. Experiments were repeated at least three times on cells deriving from different passages.
# as §2
# OATP2B1 [3] = molecular target: T3, OATP2B1 (Homo sapiens, UniProt O94956); experiment: Pyranine uptake inhibition in A431 cells overexpressing OATP2B1; details: for fold decrease in activity compared with compound 11: 3-hydroxy and 3-methoxy analogs vs 3-benzyloxy compound 11; for selectivity for OATP2B1 (in words): vs OATP1B1 and OATP1B3
# T3 sequence (O94956 1-709): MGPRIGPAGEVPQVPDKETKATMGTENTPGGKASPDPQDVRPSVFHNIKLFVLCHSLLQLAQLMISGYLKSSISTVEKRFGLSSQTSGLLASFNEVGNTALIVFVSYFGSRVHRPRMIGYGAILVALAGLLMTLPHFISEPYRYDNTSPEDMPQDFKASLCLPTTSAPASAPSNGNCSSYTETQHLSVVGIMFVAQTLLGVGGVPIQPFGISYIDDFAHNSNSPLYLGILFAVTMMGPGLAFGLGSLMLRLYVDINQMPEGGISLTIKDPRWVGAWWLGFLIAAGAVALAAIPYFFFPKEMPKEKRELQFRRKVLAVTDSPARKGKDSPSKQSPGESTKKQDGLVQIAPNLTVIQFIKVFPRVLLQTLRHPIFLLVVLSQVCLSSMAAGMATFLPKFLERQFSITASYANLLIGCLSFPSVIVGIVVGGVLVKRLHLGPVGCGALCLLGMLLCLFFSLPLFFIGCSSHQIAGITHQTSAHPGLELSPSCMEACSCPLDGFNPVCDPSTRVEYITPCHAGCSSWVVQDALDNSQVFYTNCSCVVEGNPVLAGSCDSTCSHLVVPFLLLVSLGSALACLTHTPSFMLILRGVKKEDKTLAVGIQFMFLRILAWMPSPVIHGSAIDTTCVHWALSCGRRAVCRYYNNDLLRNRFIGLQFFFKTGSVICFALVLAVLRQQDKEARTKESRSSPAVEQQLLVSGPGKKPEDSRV
# Description: as §3, §1, §4, §2
# OATP1B1 [4] = molecular target: T1, OATP1B1; details: cited from earlier work; for median bioactivity value: OATP1B1, public data sources
# OATP2B1 [5] = molecular target: T3, OATP2B1; design: method as in earlier work; details: Figure S14; public data sources; cited from earlier work
# OATP1B3 [6] = molecular target: T2, OATP1B3; design: expressed in transfected cells; host or cells: A431 cells; details: public data sources; cited from earlier work
Compound,IC50 (OATP1B1 [1]),activity on OATP1B1 and OATP1B3 (in words) (OATP1B1 [1]),IC50 (OATP1B3 [2]),IC50 (OATP2B1 [3]),also measured
C[C@@]12CCC3c4ccc(O)c(Br)c4CCC3C1CCC2=O (stereo partly drawn) [Compound 6],4.07 µM,weak to borderline inhibitory activity,9.2 µM,2970 nM,
CCOP(=O)(OCC)c1c(OC)ccc2c1CCC1C2CC[C@@]2(C)C(=O)CCC12 (stereo partly drawn) [Compound 16],32.4 µM,rather inactive,11.8 µM,2740 nM,
CCOP(=O)(OCC)c1c(O)ccc2c1CCC1C2CC[C@@]2(C)C(=O)CCC12 (stereo partly drawn) [Compound 14],> 50 µM,,> 50 µM,10200 nM,
"C[C@@]12CCC3c4ccc(O)cc4CCC3C1CCC2=O (stereo partly drawn) [Compound 1, 13α-estrone]",,,> 50 µM,> 50000 nM,
CCOP(=O)(OCC)c1cc2c(cc1OCc1ccccc1)CCC1C2CC[C@@]2(C)C(=O)CCC12 (stereo partly drawn) [Compound 11],0.76 µM,highly active,2.18 µM,180 nM,
"C[C@]12CC[C@@H]3c4ccc(OS(=O)(=O)O)cc4CC[C@H]3[C@@H]1CCC2=O [E-3-S, estrone-3-sulfate]",,,,,"median bioactivity value (OATP1B1 [4]): 0.450 µM; transporter selectivity (in words) (OATP1B1 [4]; OATP1B1 vs OATP1B3, known from literature): OATP1B1 selective; IC50 (OATP2B1 [5]): 10 µM"
CCOP(=O)(OCC)c1cc2c(cc1OC)CCC1C2CC[C@@]2(C)C(=O)CCC12 (stereo partly drawn) [Compound 15],10.1 µM,rather inactive,9.5 µM,2960 nM,fold decrease in activity compared with compound 11 (OATP2B1 [3]; OATP2B1): approximately 17 fold
C[C@@]12CCC3c4ccc(O)c(Cl)c4CCC3C1CCC2=O (stereo partly drawn) [Compound 10],25 µM,,> 50 µM,10500 nM,"IC50 at 15 min (OATP2B1 [3]; human, pH 5.5): 10.5 µM"
C[C@@]12CCC3c4ccc(OCc5ccccc5)cc4CCC3C1CCC2=O (stereo partly drawn) [Compound 3],> 50 µM,,> 50 µM,7170 nM,
C[C@@]12CCC3c4cc(Cl)c(O)cc4CCC3C1CCC2=O (stereo partly drawn) [Compound 9],> 50 µM,,> 50 µM,900 nM,selectivity for OATP2B1 (in words) (OATP2B1 [3]): selective
COc1cc2c(cc1Br)C1CC[C@@]3(C)C(=O)CCC3C1CC2 (stereo partly drawn) [Compound 4],> 50 µM,,> 50 µM,8390 nM,fold decrease in affinity compared to hydroxyl derivative (compound 5) (OATP2B1 [3]; OATP2B1): 7 fold; selectivity for OATP2B1 (in words) (OATP2B1 [3]): selective
C[C@@]12CCC3c4cc(Br)c(O)cc4CCC3C1CCC2=O (stereo partly drawn) [Compound 5],> 50 µM,,> 50 µM,1190 nM,selectivity for OATP2B1 (in words) (OATP2B1 [3]): selective
CCOP(=O)(OCC)c1cc2c(cc1O)CCC1C2CC[C@@]2(C)C(=O)CCC12 (stereo partly drawn) [Compound 13],3.79 µM,moderate activity,5.24 µM,3180 nM,fold decrease in activity compared with compound 11 (OATP2B1 [3]; OATP2B1): approximately 17 fold
C[C@@]12CCC3c4ccc(O)c(I)c4CCC3C1CCC2=O (stereo partly drawn) [Compound 8],9.28 µM,weak to borderline inhibitory activity,8.28 µM,3580 nM,
COc1ccc2c(c1)CCC1C2CC[C@@]2(C)C(=O)CCC12 (stereo partly drawn) [Compound 2],> 50 µM,,> 50 µM,5410 nM,
C[C@@]12CCC3c4cc(I)c(O)cc4CCC3C1CCC2=O (stereo partly drawn) [Compound 7],22.5 µM,,18.2 µM,600 nM,selectivity for OATP2B1 (in words) (OATP2B1 [3]): selective
CCOP(=O)(OCC)c1c(OCc2ccccc2)ccc2c1CCC1C2CC[C@@]2(C)C(=O)CCC12 (stereo partly drawn) [Compound 12],3.22 µM,highly active,2.49 µM,750 nM,
C[C@H](CCC(=O)O)[C@H]1CC[C@H]2[C@@H]3CC[C@@H]4C[C@H](O)CC[C@]4(C)[C@H]3CC[C@]12C [lithocholate],,,,,median bioactivity value (OATP1B1 [4]): 0.918 µM; median bioactivity value (OATP1B3 [6]): 6.807 µM
COC(=O)CC[C@@H](C)[C@H]1CC[C@H]2[C@@H]3[C@H](O)C[C@@H]4C[C@H](O)CC[C@]4(C)[C@H]3C[C@H](O)[C@]12C [cholic acid methyl ester],,,,,median bioactivity value (OATP1B1 [4]): 0.20 µM; median bioactivity value (OATP1B3 [6]): 0.13 µM
